This is an account of results in paper PMC12114375, “Discovery of Hydrazineyl Amide Derivative of Pseudolaric Acid B for Reprogramming Tumor-Associated Macrophages Against Tumor Growth” (Molecules, 2025).

What all share (format): cell-based, mouse
Data set [1] deals with ARG1 mRNA expression in RAW 264.7 cells. Nature of the data set: qRT-PCR of ARG1 mRNA in IL-4/IL-13-stimulated RAW 264.7 cells. Conditions: 12 h, mean ± SD; for mrna remaining at 10 µM: RAW264.7, IL-4/IL-13 (20 ng/mL) plus compound 10 μM; for mrna remaining at 10 µM / ARG1 mRNA Relative Expression (%): stimulated control = 100%; for ARG1 mRNA Relative Expression (%): IL-4/IL-13 (20 ng/mL) plus compound 10 μM. The text has this:
(§1) We first investigated the impacts of a series of commercially available natural pseudolaric acids or their O-pyranosides (Figure 1) on the pro-tumoral phenotype of TAMs, which play a critical role in anti-tumor immune response modulation. […] In contrast, M1-biased macrophages combat tumor growth and bacterial infections by expressing inducible nitric oxide synthase 2 (NOS2), which catalyzes the production of nitric oxide (NO). Recognizing the pivotal roles of ARG1 and NOS2, we utilized these molecules as key biomarkers and effectors for assessing macrophage immune function. In our experiments, the mouse monocyte–macrophage leukemia cell line RAW 264.7 was induced with IL-4/IL-13 to acquire an M2-like pro-tumoral phenotype. Concurrently, the cells were treated with the pseudolaric acid-related natural products 1–7 at a concentration of 10 μM for 12 h. Additionally, PLX3397 was used as a positive control at a concentration of 0.5 μM. […] As shown in Table 1 and Figure S1A, pseudolaric acid B (1), its deacetoxyl analogue 2 (pseudolaric acid C), and β-D-glucoside 7 substantially attenuated the upregulation of ARG1 mRNA expression induced by IL-4/IL-13, with statistically significant effects. In contrast, bis-carboxylic acids analogs 4 (pseudolaric acid C2) and 6 (demethoxydeacetoxypseudolaric acid B) have no significant impact on ARG1 mRNA expression.
(§2) With these carboxylic acid-modified derivatives in hand, we investigated their impact at 10 μM on ARG1 and NOS2 mRNA expression in RAW 264.7 cells pre-stimulated with IL-4/IL-13 to evaluate the effects on the pro-tumor phenotype of macrophages. […] Further removal of one hydroxyl from the glycerol moiety 15 further enhanced the inhibitory effect on ARG1 expression but had no significant impact on NOS2 expression.
(§3) Total RNA was isolated from cells using the EZ-press RNA Purification Kit (EZBioscience, Suzhou, China) and subjected to reverse transcription with the 5×HiScript II qRT SuperMix II (Vazyme, Nanjing, China). PCR was performed with the 2×ChamQ Universal SYBR qPCR Master Mix (Vazyme, Nanjing, China). All primers for qRT-PCR are described in Table S1. The 2^−∆∆Ct method was utilized to calculate the fold change in gene expression, with the expression levels in the stimulated group set as the baseline for normalization.

The subject of data set [2] is NOS2 mRNA expression in RAW 264.7 cells. The data set is described as follows: qRT-PCR of NOS2 mRNA in IL-4/IL-13-stimulated RAW 264.7 cells. Conditions: 12 h, mean ± SD; for activity at 10 µM: RAW264.7, IL-4/IL-13 (20 ng/mL) plus compound 10 μM; for activity at 10 µM / NOS2 mRNA Relative Expression (%): stimulated control = 100%; for NOS2 mRNA Relative Expression (%): IL-4/IL-13 (20 ng/mL) plus compound 10 μM.
Source text: as §1, §2, §3
On the technique in general: In qPCR the cycle at which signal appears reflects the starting amount.

Another data set relates to Raw264.7 cells. Nature of the data set: Cell viability (CCK-8) of RAW264.7 cells. Conditions: IL-4/IL-13 plus compound 10 μM, 12 h. The method, then:
Cells were seeded in 96-well tissue culture plates. On the next day, cells were exposed to various concentrations of compounds and further cultured for the indicated period. Finally, cell proliferation was determined by using the Cell Counting Kit (CCK-8) (Dojindo, Kumamoto, Japan) assay.
Figure S2. Effects of natural pseudolaric acids 1-4, 6 and their O-pyranosides 5, 7 as well as the derivatives 8-18 o f 1 on Raw264.7 cell viability. Raw264.7 cells were treated with IL-4/IL-13 alone or combined with indicated compounds (10 μM) for 12 h. After incubation, the cell viability was determined using a cell counting kit (CCK-8, Dojindo, Japan) assay.
(1 picture or pasted object on this page, not shown here)

Setting [3] is: Mus musculus, read-out: ARG1 mRNA Relative Expression (%).
Setting [4] is: Mus musculus, read-out: NOS2 mRNA Relative Expression (%).

For `FC(F)(F)c1ccc(CNc2ccc(Cc3c[nH]c4ncc(Cl)cc34)cn2)cn1` [PLX3397, reference compound], the mrna remaining at 0.5 µM in data set [1] (Mus musculus, RAW264.7, IL-4/IL-13 (20 ng/mL) plus positive control 0.5 μM, read-out: ARG1 mRNA Relative Expression (%)) worked out at 3.2 ± 2.4%. Moreover, the activity at 0.5 µM in data set [2] (Mus musculus, RAW264.7, IL-4/IL-13 (20 ng/mL) plus positive control 0.5 μM, read-out: NOS2 mRNA Relative Expression (%)) stood at 193 ± 10.2%.

For `COC(=O)C1=CC[C@@]23CC[C@@H]([C@@](C)(/C=C/C=C(\C)C(=O)O)OC2=O)[C@@]3(O)CC1` [compound 2, pseudolaric acid C, reference compound], the mrna remaining at 10 µM in data set [1] (setting [3]) was found to be 17.3 ± 9.1%. The activity at 10 µM in data set [2] (setting [4]) is 80.1 ± 15.6%.

Take `CC(=O)O[C@]12CCC(C)=CC[C@]13CC[C@H]2[C@@](C)(/C=C/C=C(\C)C(=O)O)OC3=O` [compound 3, pseudolaric acid A, reference compound]: the mrna remaining at 10 µM in data set [1] (setting [3]) is 343 ± 27.9%. In addition, the activity at 10 µM in data set [2] (setting [4]) came to 297 ± 6.8%.

For the molecule `CC(=O)O[C@]12CCC(C(=O)O)=CC[C@]13CC[C@H]2[C@@](C)(/C=C/C=C(\C)C(=O)O)OC3=O` [compound 4, pseudolaric acid C2, reference compound], in data set [1] (setting [3]), the mrna remaining at 10 µM was 87.4 ± 25.4%. Also, in data set [2] (setting [4]), the activity at 10 µM worked out at 131 ± 14.5%.

Consider `CC(=O)O[C@]12CCC(C)=CC[C@]13CC[C@H]2[C@@](C)(/C=C/C=C(\C)C(=O)O[C@@H]1O[C@H](CO)[C@@H](O)[C@H](O)[C@H]1O)OC3=O` [compound 5, reference compound], for which the mrna remaining at 10 µM in data set [1] (setting [3]) stood at 16.2 ± 9.2%. The activity at 10 µM in data set [2] (setting [4]) turned out to be 158 ± 17.2%.

Regarding `COC(=O)C1=CC[C@@]23CC[C@@H]([C@@](C)(/C=C/C=C(\C)C(=O)O[C@@H]4O[C@H](CO)[C@@H](O)[C@H](O)[C@H]4O)OC2=O)[C@@]3(OC(C)=O)CC1` [compound 7, reference compound], in data set [1] (setting [3]), the mrna remaining at 10 µM was found to be 21.2 ± 13%. In addition, the activity at 10 µM in data set [2] (setting [4]) came to 307 ± 36.2%. For the same molecule, the cell viability result in the data set with Raw264.7 cells is “only a minimal reduction in cell viability”.

As to `COC(=O)C1=CC[C@@]23CC[C@@H]([C@@](C)(/C=C/C=C(\C)C(=O)NCC(F)(F)F)OC2=O)[C@@]3(OC(C)=O)CC1` [compound 9, Methyl (3R,4S,4aS,9aR)-4a-acetoxy-3-methyl-3-((1E,3E)-4-methyl-5-oxo-5-((2,2,2-trifluoroethyl)amino)penta-1,3-dien-1-yl)-1-oxo-3,4,4a,5,6,9-hexahydro-1H-4,9a-ethanocyclohepta[c]pyran-7-carboxylate], in data set [1] (setting [3]), the mrna remaining at 10 µM worked out at 7.4%. For the same molecule, in data set [2], the “NOS2 mRNA Relative Expression (%)” value was determined as 148.7 ± 14.1%. In addition, the activity at 10 µM in data set [2] (setting [4]) was found to be 149%.

In the case of `COC(=O)C1=CC[C@@]23CC[C@@H]([C@@](C)(/C=C/C=C(\C)C(=O)NCC(C)O)OC2=O)[C@@]3(OC(C)=O)CC1` (stereo partly drawn) [compound 10, Methyl(3R,4S,4aS,9aR)-4a-acetoxy-3-((1E,3E)-5-((2-hydroxypropyl)amino)-4-methyl-5-oxopenta-1,3-dien-1-yl)-3-methyl-1-oxo-3,4,4a,5,6,9-hexahydro-1H-4,9a-ethanocyclohepta[c]pyran-7-carboxylate], the mrna remaining at 10 µM in data set [1] (setting [3]) turned out to be 7.5%. Further, in data set [2] (setting [4]), the activity at 10 µM was determined as 103 ± 7.2%.

`COC(=O)C1=CC[C@@]23CC[C@@H]([C@@](C)(/C=C/C=C(\C)C(=O)NCCN(CCO)CCO)OC2=O)[C@@]3(OC(C)=O)CC1` [compound 13, Methyl(3R,4S,4aS,9aR)-4a-acetoxy-3-((1E,3E)-5-((2-(bis(2-hydroxyethyl)amino)ethyl)amino)-4-methyl-5-oxopenta-1,3-dien-1-yl)-3-methyl-1-oxo-3,4,4a,5,6,9-hexahydro-1H-4,9a-ethanocyclohepta[c]pyran-7-carboxylate]: in data set [1] (setting [3]), the mrna remaining at 10 µM was determined as 72.2 ± 10.2%. For the same molecule, the activity at 10 µM in data set [2] (setting [4]) is 134 ± 5%.

As for `COC(=O)C1=CC[C@@]23CC[C@@H]([C@@](C)(/C=C/C=C(\C)C(=O)NC(CO)(CO)CO)OC2=O)[C@@]3(OC(C)=O)CC1` [compound 14, Methyl(3R,4S,4aS,9aR)-4a-acetoxy-3-((1E,3E)-5-((1,3-dihydroxy-2-(hydroxymethyl)propan-2-yl)amino)-4-methyl-5-oxopenta-1,3-dien-1-yl)-3-methyl-1-oxo-3,4,4a,5,6,9-hexahydro-1H-4,9a-ethanocyclohepta[c]pyran-7-carboxylate], the mrna remaining at 10 µM in data set [1] (setting [3]) is 42.2 ± 9.5%. The activity at 10 µM in data set [2] (setting [4]) was determined as 136 ± 8%.

On to `COC(=O)C1=CC[C@@]23CC[C@@H]([C@@](C)(/C=C/C=C(\C)C(=O)OC4O[C@H](COC(C)=O)[C@@H](OC(C)=O)C(OC(C)=O)[C@H]4OC(C)=O)OC2=O)[C@@]3(OC(C)=O)CC1` (stereo partly drawn) [compound 16, (3R,5R,6R)-2-(((2E,4E)-5-((3R,4S,4aS,9aR)-4a-Acetoxy-7-(methoxycarbonyl)-3-methyl-1-oxo-3,4,4a,5,6,9-hexahydro-1H-4,9a-ethanocyclohepta[c]pyran-3-yl)-2-methylpenta-2,4-dienoyl)oxy)-6-(acetoxymethyl)tetrahydro-2H-pyran-3,4,5-triyl triacetate], for which the mrna remaining at 10 µM in data set [1] (setting [3]) was determined as 80 ± 27.5%. In addition, the activity at 10 µM in data set [2] (setting [4]) was 95.2 ± 23%.

As for `COC(=O)C1=CC[C@@]23CC[C@@H]([C@@](C)(/C=C/C=C(\C)C(=O)O[C@H]4OC[C@@H](OC(C)=O)[C@H](OC(C)=O)[C@H]4OC(C)=O)OC2=O)[C@@]3(OC(C)=O)CC1` [compound 17, (2R,3R,4S,5R)-2-(((2E,4E)-5-((3R,4S,4aS,9aR)-4a-Acetoxy-7-(methoxycarbonyl)-3-methyl-1-oxo-3,4,4a,5,6,9-hexahydro-1H-4,9a-ethanocyclohepta[c]pyran-3-yl)-2-methylpenta-2,4-dienoyl)oxy)tetrahydro-2H-pyran-3,4,5-triyl triacetate], the mrna remaining at 10 µM in data set [1] (setting [3]) is 32.3 ± 19.2%. Further, in data set [2] (setting [4]), the activity at 10 µM was found to be 91.3 ± 6.9%.

For the molecule “(2E,4E)-5-((3R,4S,4aS,9aR)-4a-acetoxy-7-(methoxycarbonyl)-3-methyl-1-oxo-3,4,4a,5,6,9-hexahydro-1H-4,9a-ethanocyclohepta[c]pyran-3-yl)-2-methylpenta-2,4-dienoic acid [compound 15]”, the “ARG1 mRNA Relative Expression (%)” value in data set [1] was found to be 18.7 ± 18.0%. For the same molecule, the “NOS2 mRNA Relative Expression (%)” value in data set [2] stood at 130.3 ± 5.8%.

In the case of “(2R,3S,4S,5R,6R)-6-(((2E,4E)-5-((3R,4S,4aS,9aR)-4a-Acetoxy-7-(methoxycarbonyl)-3-methyl-1-oxo-3,4,4a,5,6,9-hexahydro-1H-4,9a-ethanocyclohepta[c]pyran-3-yl)-2-methylpenta-2,4-dienoyl)oxy)tetrahydro-2H-pyran-2,3,4,5-tetrayl tetraacetate [compound 18]”, the “ARG1 mRNA Relative Expression (%)” value in data set [1] was 42.6 ± 30.2%. In addition, in data set [2], the “NOS2 mRNA Relative Expression (%)” value is 58.7 ± 4.5%.
